According to PMC11755407, “Advancements in drug discovery: integrating CADD tools and drug repurposing for PD-1/PD-L1 axis inhibition” (RSC Advances, 2025):

Assays:
PD-L1 [1] = target: T1, PD-L1 (Homo sapiens, UniProt Q9NZQ7); assay: competitive ELISA of PD-1Fc binding to immobilized PD-L1
T1 construct: gene CD274; purified recombinant monomeric human PD-L1His (produced in plants); with PD-1 (PD-1Fc chimera)

PD-L1 [2] = target: T1, PD-L1; assay: competitive ELISA of PD-1Fc binding to immobilized PD-L1; also partial competition with anti-PD-L1 mAb MIH1 on MDA-MB-231 cells (flow cytometry)

T1 sequence (Q9NZQ7 19-238 limits assumed): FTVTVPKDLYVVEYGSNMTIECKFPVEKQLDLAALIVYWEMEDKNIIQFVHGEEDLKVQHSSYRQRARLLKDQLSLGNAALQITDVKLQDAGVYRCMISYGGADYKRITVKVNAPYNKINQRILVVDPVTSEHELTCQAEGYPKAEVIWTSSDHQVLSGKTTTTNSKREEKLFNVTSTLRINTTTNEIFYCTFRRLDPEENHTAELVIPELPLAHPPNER
T1 sequence (Q15116 25-288 partner): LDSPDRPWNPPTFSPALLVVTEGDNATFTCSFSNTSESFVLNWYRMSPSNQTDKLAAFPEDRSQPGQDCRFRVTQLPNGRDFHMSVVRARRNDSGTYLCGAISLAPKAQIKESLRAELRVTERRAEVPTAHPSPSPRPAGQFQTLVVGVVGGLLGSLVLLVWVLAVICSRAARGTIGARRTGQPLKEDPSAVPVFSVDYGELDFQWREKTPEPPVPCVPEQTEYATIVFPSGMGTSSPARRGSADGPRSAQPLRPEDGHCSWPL

| IC50 (PD-L1 [1]) [µM] | IC50 (PD-L1 [2]) [µM] | Compound |
| --- | --- | --- |
| 481 | – | Cc1c(C(=O)Nc2ccc(N3C[C@@H](C)O[C@@H](C)C3)nc2)cccc1-c1ccc(OC(F)(F)F)cc1 [compound 28, sonidegib] |
| – | 5.52 | PDI-1 |
